According to article PMC9652372, “Glycolytic flux control by drugging phosphoglycolate phosphatase” (Nature Communications, 2022):
Values after ≈ are worked out from the molar mass of the structure shown. Values joined by “and” are separate entries in the source; they are usually repeats but may differ in a detail not shown here. Equal values may be shown once.

Tests used:
murine PGP [1] = molecular target: T1, murine PGP (Mus musculus, UniProt Q8CHP8); test: IC50 determination, murine PGP, pNPP dephosphorylation
T1 sequence (Q8CHP8 1-321): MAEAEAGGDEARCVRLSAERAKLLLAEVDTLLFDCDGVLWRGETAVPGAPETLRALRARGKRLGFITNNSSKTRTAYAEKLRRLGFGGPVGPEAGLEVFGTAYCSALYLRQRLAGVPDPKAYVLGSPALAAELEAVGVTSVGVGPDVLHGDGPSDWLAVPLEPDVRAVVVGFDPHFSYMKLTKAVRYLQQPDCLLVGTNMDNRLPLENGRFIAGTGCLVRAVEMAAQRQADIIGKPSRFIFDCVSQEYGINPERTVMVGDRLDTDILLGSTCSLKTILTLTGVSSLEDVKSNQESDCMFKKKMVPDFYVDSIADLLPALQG

physchem = conditions: organic solvent or mixture
PGP^WT = molecular target: T2, PGP^WT (Mus musculus, UniProt Q8CHP8); test: Differential scanning fluorimetry (Thermofluor); type: binding
T2 construct: His6 (N, cleaved yes); made in house; host or cells: Escherichia coli BL21 (DE3), pETM11, co-expressed with groES-groEL-tig
T2 sequence (Q8CHP8 1-321): T1 sequence (Q8CHP8 1-321)

murine PGP [2] = molecular target: T1, murine PGP; test: biochemical
murine PDXP = molecular target: T3, murine PDXP (Mus musculus, UniProt P60487); test: PDXP activity towards pyridoxal 5'-phosphate (PLP); conditions: phosphatase PDXP; species M.m.; substrate PLP; n.s. = no significant inhibition detectable
T3 sequence (P60487 1-292): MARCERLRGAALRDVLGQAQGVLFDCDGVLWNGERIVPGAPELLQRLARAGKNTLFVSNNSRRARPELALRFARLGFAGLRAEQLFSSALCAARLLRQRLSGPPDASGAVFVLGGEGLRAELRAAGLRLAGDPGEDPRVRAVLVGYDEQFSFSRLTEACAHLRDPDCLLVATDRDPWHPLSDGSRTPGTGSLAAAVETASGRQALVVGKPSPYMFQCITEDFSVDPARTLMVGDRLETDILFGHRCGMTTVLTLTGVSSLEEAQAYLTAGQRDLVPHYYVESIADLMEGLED

PGP = molecular target: T4, PGP (Mus musculus, UniProt Q8CHP8); test: Steady state kinetics of PG dephosphorylation in presence of CP1-3
T4 sequence (Q8CHP8 1-321): T1 sequence (Q8CHP8 1-321)

murine PDXP/PGP hybrid = molecular target: T5, murine PDXP/PGP hybrid (Mus musculus, UniProt P60487+Q8CHP8); test: PG dephosphorylation by PDXP/PGP hybrid protein; type: biochemical
T5 construct: consisting of the PGP cap domain (amino acids 114–233) fused to the PDXP core domain; His6 (N, cleaved yes); made in house; host or cells: Escherichia coli BL21 (DE3), pETM11
T5 sequence (P60487 1-100): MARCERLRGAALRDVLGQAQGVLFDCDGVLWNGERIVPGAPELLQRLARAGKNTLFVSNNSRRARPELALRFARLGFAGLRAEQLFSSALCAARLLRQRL
T5 sequence (Q8CHP8 114-233): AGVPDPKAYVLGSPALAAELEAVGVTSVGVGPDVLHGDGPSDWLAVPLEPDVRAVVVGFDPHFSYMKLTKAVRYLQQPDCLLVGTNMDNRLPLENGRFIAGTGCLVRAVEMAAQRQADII
T5 sequence (P60487 208-292): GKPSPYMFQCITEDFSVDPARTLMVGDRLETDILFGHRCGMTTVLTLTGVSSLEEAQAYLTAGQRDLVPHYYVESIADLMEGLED
Description: After centrifugation, cells were resuspended in TNM-2 (100 mM triethanolamine, 500 mM NaCl, 20 mM imidazole, 5 mM MgCl2; pH 7.4). Cleared supernatants were loaded on a HisTrap HP nickel sepharose column in TNM-3 (50 mM triethanolamine, 500 mM NaCl, 20 mM imidazole, 5 mM MgCl2; pH 7.4), and His6-tagged proteins were eluted using a linear gradient of up to 50% TNM-4 (50 mM triethanolamine; 250 mM NaCl; 500 mM imidazole; 5 mM MgCl2; pH 7.4). Peak fractions were pooled, the His6-tag was cleaved, and untagged PDXP or PDXP/PGP was isolated, concentrated and further purified by size exclusion chromatography in TNM-5 (50 mM triethanolamine; 250 mM NaCl; 5 mM MgCl2; pH 7.4). […] Data were analyzed with GraphPad Prism 7.04.

[3] = PG dephosphorylation, increasing CP concentrations

Work on `O=C(O)c1cc(Nc2ccccc2C(=O)O)nc(Nc2ccccc2C(=O)O)n1` [CP3] yielded an IC50 (murine PGP [1]) of 13500 ± 2510 nM, a remaining activity at 10 µM (murine PGP [1]; read-out: M.m PGP on pNPP, activity, control = 100.00, CP log[M] -5) of 45.5% and a remaining activity at 5 µM (murine PGP [1]; read-out: M.m PGP on pNPP, activity, control = 100.00, CP log[M] -5.30103) of 61.5%. For the same molecule, the remaining activity at […] (murine PGP [1]; read-out: M.m PGP on pNPP, activity, control = 100.00, CP log[M] -5.60206) was 74.3%, the remaining activity at 80 µM (murine PGP [1]; read-out: M.m PGP on pNPP, activity, control = 100.00, Log CP3 [M] -4.09691) was 12.6% and the remaining activity at 40 µM (murine PGP [1]; read-out: M.m PGP on pNPP, activity, control = 100.00, Log CP3 [M] -4.39794) was 20.3%. The remaining activity at 20 µM (murine PGP [1]; read-out: M.m PGP on pNPP, activity, control = 100.00, Log CP3 [M] -4.69897) was 33.2%, the remaining activity at 1.25 µM (murine PGP [1]; read-out: M.m PGP on pNPP, activity, control = 100.00, Log CP3 [M] -5.90309) was 85.2% and the remaining activity at 0.625 µM (murine PGP [1]; read-out: M.m PGP on pNPP, activity, control = 100.00, Log CP3 [M] -6.20412) was 88.3%. It also gave a remaining activity at 0.3125 µM (murine PGP [1]; read-out: M.m PGP on pNPP, activity, control = 100.00, Log CP3 [M] -6.50515) of 93.8%, a remaining activity at 0.15625 µM (murine PGP [1]; read-out: M.m PGP on pNPP, activity, control = 100.00, Log CP3 [M] -6.80618) of 98.4% and a remaining activity at 0.078125 µM (murine PGP [1]; read-out: M.m PGP on pNPP, activity, control = 100.00, Log CP3 [M] -7.10721) of 101%. For the same molecule, the solubility (physchem) was 50 mM (≈ 19.7 mg/mL), the TM (PGP^WT; Inhibitor 0.244141 µM) was 66.6 °C and the TM (PGP^WT; Inhibitor 0.488281 µM) was 66.7 °C. The TM (PGP^WT; Inhibitor 0.976562 µM) was 67.0 °C, the TM (PGP^WT; Inhibitor 1.95312 µM) was 67.3 °C and the TM (PGP^WT; Inhibitor 3.90625 µM) was 68.1 °C. For the same molecule, the TM (PGP^WT; Inhibitor 7.8125 µM) was 69.0 °C, the TM (PGP^WT; Inhibitor 15.625 µM) was 70.4 °C and the TM (PGP^WT; Inhibitor 31.25 µM) was 71.2 °C. It also gave a TM (PGP^WT; Inhibitor 62.5 µM) of 72.1 °C, a TM (PGP^WT; Inhibitor 125 µM) of 72.8 °C and a TM (PGP^WT; Inhibitor 250 µM) of 73.4 °C. The IC50 (murine PGP [2]) was 810 nM and 1000 nM, the IC50 (murine PDXP) was “n.s” and the “mode of PGP inhibition” value (PGP) was “competitive inhibitors”. For the same molecule, the PGP activity (PGP; 1 µM CP3, PG 50 µM) was 2.463 µmol Pi/min/mg and 2.403 µmol Pi/min/mg and 1.502 µmol Pi/min/mg, the PGP activity (PGP; 1 µM CP3, PG 100 µM) was 5.226 µmol Pi/min/mg and 4.205 µmol Pi/min/mg and the PGP activity (PGP; 1 µM CP3, PG 200 µM) was 10.3316 µmol Pi/min/mg and 9.671 µmol Pi/min/mg and 8.89 µmol Pi/min/mg. The PGP activity (PGP; 1 µM CP3, PG 300 µM) was 14.7802 µmol Pi/min/mg and 14.2395 µmol Pi/min/mg and 12.9778 µmol Pi/min/mg, the PGP activity (PGP; 1 µM CP3, PG 400 µM) was 17.1234 µmol Pi/min/mg and 17.6642 µmol Pi/min/mg and 16.5827 µmol Pi/min/mg and the PGP activity (PGP; 1 µM CP3, PG 500 µM) was 20.9086 µmol Pi/min/mg and 20.1877 µmol Pi/min/mg and 22.1704 µmol Pi/min/mg. For the same molecule, the PGP activity (PGP; 1 µM CP3, PG 600 µM) was 22.1704 µmol Pi/min/mg and 21.0889 µmol Pi/min/mg and 23.7926 µmol Pi/min/mg, the PGP activity (PGP; 1 µM CP3, PG 700 µM) was 23.4321 µmol Pi/min/mg and 22.7111 µmol Pi/min/mg and 25.4148 µmol Pi/min/mg and the PGP activity (PGP; 1 µM CP3, PG 800 µM) was 25.7753 µmol Pi/min/mg and 22.1704 µmol Pi/min/mg and 24.3333 µmol Pi/min/mg. For the same molecule, the PGP activity (PGP; 2 µM CP3, PG 100 µM) was 4.445 µmol Pi/min/mg and 3.364 µmol Pi/min/mg and 4.265 µmol Pi/min/mg, the PGP activity (PGP; 2 µM CP3, PG 200 µM) was 8.469 µmol Pi/min/mg and 7.448 µmol Pi/min/mg and the PGP activity (PGP; 2 µM CP3, PG 300 µM) was 12.437 µmol Pi/min/mg and 10.4543 µmol Pi/min/mg and 11.8963 µmol Pi/min/mg. For the same molecule, the PGP activity (PGP; 2 µM CP3, PG 400 µM) was 15.6815 µmol Pi/min/mg and 12.7975 µmol Pi/min/mg and 14.7802 µmol Pi/min/mg, the PGP activity (PGP; 2 µM CP3, PG 500 µM) was 18.7457 µmol Pi/min/mg and 18.5654 µmol Pi/min/mg and 18.3852 µmol Pi/min/mg and the PGP activity (PGP; 2 µM CP3, PG 600 µM) was 19.6469 µmol Pi/min/mg and 20.7284 µmol Pi/min/mg. The PGP activity (PGP; 2 µM CP3, PG 700 µM) was 20.9086 µmol Pi/min/mg and 21.8099 µmol Pi/min/mg and 21.0889 µmol Pi/min/mg, the PGP activity (PGP; 2 µM CP3, PG 800 µM) was 21.4494 µmol Pi/min/mg and 22.3506 µmol Pi/min/mg and 22.7111 µmol Pi/min/mg and the PGP activity (PGP; 4 µM CP3, PG 100 µM) was 3.4839 µmol Pi/min/mg and 2.463 µmol Pi/min/mg and 3.424 µmol Pi/min/mg. For the same molecule, the PGP activity (PGP; 4 µM CP3, PG 200 µM) was 6.547 µmol Pi/min/mg and 5.706 µmol Pi/min/mg and 6.728 µmol Pi/min/mg, the PGP activity (PGP; 4 µM CP3, PG 300 µM) was 9.553 µmol Pi/min/mg and 7.39 µmol Pi/min/mg and 12.7975 µmol Pi/min/mg and the PGP activity (PGP; 4 µM CP3, PG 400 µM) was 12.437 µmol Pi/min/mg and 10.4543 µmol Pi/min/mg and 15.321 µmol Pi/min/mg. For the same molecule, the PGP activity (PGP; 4 µM CP3, PG 500 µM) was 15.6815 µmol Pi/min/mg and 15.5012 µmol Pi/min/mg and 17.484 µmol Pi/min/mg, the PGP activity (PGP; 4 µM CP3, PG 600 µM) was 16.763 µmol Pi/min/mg and 19.1062 µmol Pi/min/mg and the PGP activity (PGP; 4 µM CP3, PG 700 µM) was 16.763 µmol Pi/min/mg and 18.0247 µmol Pi/min/mg and 21.8099 µmol Pi/min/mg. The PGP activity (PGP; 4 µM CP3, PG 800 µM) was 17.3037 µmol Pi/min/mg and 18.2049 µmol Pi/min/mg and 22.5309 µmol Pi/min/mg, the vmax (PGP; CP 1.0 µM) was 50.8 ± 4.1 µmol/min/mg and the vmax (PGP; CP 2.0 µM) was 54.7 ± 4.9 µmol/min/mg. For the same molecule, the vmax (PGP; CP 4.0 µM) was 54.3 ± 11.9 µmol/min/mg, the “effect on vmax (reduction)” value (PGP; [3]) was “without affecting vmax” and the “increase of KM” value (PGP; [3]) was ~ 3 fold. The remaining activity at 16 µM (murine PDXP/PGP hybrid; activity, control = 100, CP log[M] -4.79588) was 1.8%, the remaining activity at 4 µM (murine PDXP/PGP hybrid; activity, control = 100, CP log[M] -5.39794) was 13.3% and the remaining activity at 1 µM (murine PDXP/PGP hybrid; activity, control = 100, CP log[M] -6) was 41.6%. For the same molecule, the remaining activity at 0.5 µM (murine PDXP/PGP hybrid; activity, control = 100, CP log[M] -6.30103) was 58.4%, the remaining activity at […] (murine PDXP/PGP hybrid; activity, control = 100, CP log[M] -6.60206) was 73.5% and the remaining activity at 0.125 µM (murine PDXP/PGP hybrid; activity, control = 100, CP log[M] -6.90309) was 84.1%. For the same molecule, the remaining activity at 0.0625 µM (murine PDXP/PGP hybrid; activity, control = 100, CP log[M] -7.20412) was 89.4%, the remaining activity at 0.015625 µM (murine PDXP/PGP hybrid; activity, control = 100, CP log[M] -7.80618) was 103% and the IC50 (murine PDXP/PGP hybrid; phosphatase PDXP/PGP, species M.m., substrate PG) was 970 ± 20 nM.
